pIC50: −log10 of the molar value.
How the values were obtained:
[1] = tested on: RD cells; assay: Cell viability assay (alamarBlue); format: cell-based, human; details: 10 µM, 12 h
Experimental: (§1) Firstly, we performed cell viability assay to evaluate the cytotoxicity profile of the 19 hits. Cells seeded overnight were treated with the hit compounds at 10 µM. […] Anti-EV-A71 activity of AGP-253 had been illustrated and discussed previously. We were particularly interested in ZAF-46 and ZAF-47 as they belonged to the same series bearing novel 14-quinolinoxy and 17-hydro-8,9-olefin modifications (Figure 2b) that could potentially open up new targets for EV-A71 therapeutics. Additional cell viability assays were performed for ZAF-46 and ZAF-47 at different concentrations to identify the low cytotoxic concentrations for downstream post-treatment assays. For post-treatment assays, cells seeded overnight were infected with EV-A71 and subsequently treated with ZAF-46 and ZAF-47 at different concentrations. […] Treatment with ZAF-46 led to 1.4 log reduction at 10 µM and 2.4 log reduction at 20 µM (Figure 2c) while treatment with ZAF-47 led to 0.8 log reduction at 5 µM, 1.1 log reduction at 10 µM and 2.1 log reduction at 20 µM (Figure 2d). CC50 and IC50 for both compounds were determined and used to derive their SI (Table 2). ZAF-47 was selected for further downstream analysis due to its higher SI value which indicate higher pharmacological value for clinical use.
(§2) To determine the cytotoxicity profiles of the hits, cell viability assay was performed. Seeded 96-well plates, with 2 × 10^4 RD cells per well, were incubated overnight at 37 °C with 5% CO2. Different concentrations of drug hits, diluted by reduced serum DMEM, were used to treat the seeded cells for 12 h at 37 °C with 5% CO2. Reduced serum DMEM, was employed as the negative control and 0.1% DMSO as the vehicle control for this step. Subsequently, the supernatant was replaced with alamarBlue^TM Cell Viability Reagent (Thermo Fisher Scientific, Waltham, MA, USA) (100 µL), diluted 10-fold in reduced serum DMEM, and incubated for 3 h at 37 °C with 5% CO2. Fluorescence intensity in each well was measured at 570 nm excitation wavelength and 600 nm emission wavelength in each well by the Infinite^TM 200 series microplate reader (Tecan, Männedorf, Switzerland) and normaliszd with the negative control to determine the relative cell viability.

[2] = tested on: EV-A71; assay: Immunofluorescence-based preliminary screen of EV-A71-infected RD cells; format: cell-based, human enterovirus A71 (EV-A71) strain 41; details: EV-A71-infected RD cells (MOI = 1)
Description: The screening assay was built using an immunofluorescence approach that was previously established and validated, with DAPI-stained nuclei accounting for total cell count and FITC-stained EV-A71 accounting for infected cell count upon EV-A71 infection and compound treatment. Both cell counts would then be used to calculate percentage infection and percentage inhibition to identify for hits. Before the screening platform can be employed to screen for potential antivirals, its robustness has to be appraised. In this study, Z-factor was calculated to assess the robustness of the screening platform. Firstly, seeded RD cells were either infected with EV-A71 (Multiplicity of Infection of 1) or mock-infected with media. The cells were then fixed, stained and imaged 12 h post-infection (hpi). The IFA images were analyzed with the Cell Profiler software to determine the infection rate of each well. Between the virus-infected and mock-infected wells, a clear distinction in infection rates could be observed (Figure 1a). […] In this case, the Z-factor, measured at 0.818, was indicative of a highly robust screening platform for high-throughput screening. The constructed screening platform was then employed to screen the compound library made up of 344 chemically synthesized novel compounds analogous to andrographolide. The compounds were screened at 10 µM with IFA images taken and analyzed to identify for hits. Treatment with 0.1% DMSO was used as vehicle control.
Seeded 96-well plates (Corning Inc., Corning, NY, USA), with 2 × 10^4 RD cells per well, were incubated overnight at 37 °C with 5% CO2. The seeded cells were then infected with EV-A71 (50 µL per well, MOI = 1) for 1 h at 37 °C with 5% CO2. The EV-A71-infected cells were then treated with the compound library at a final concentration of 10 µM for 12 h at 37 °C with 5% CO2. Treatment with 0.1% DMSO was used as vehicle control. Following treatment, cells were fixed with 100 µL of methanol (Sinopharm Chemical, Shanghai, China) for 15 min at −20°C and rinsed with 100 µL of 1x PBS for three times before performing indirect immunofluorescence assay (IFA). Anti-EV-A71 VP2 1° antibodies, MAB979 (Merck Millipore, Burlington, VT, USA), diluted 500-fold in PBS, was incubated with the fixed cells for 1 h at 37 °C. Cells were then rinsed thrice with PBS and incubated with anti-mouse FITC 2° antibodies (Merck Millipore), diluted 200-fold in PBS, for 1 h at 37 °C. After which, the cells were rinsed thrice with PBS before staining with DAPI (Sigma-Aldrich) at room temperature for 15 min. Cells were then rinsed thrice and preserved in 100 µL of PBS before imaging with the Operetta High-Content Imaging System and the Harmony High-Content Imaging and Analysis Software (Perkin Elmer, Waltham, MA, USA). Images of stained cells were captured with the DAPI and FITC fluorescence filters, from a pre-determined central position of each well and processed with the Cell Profiler software. […] The percentage infection (PI) for each well was calculated using the formula: Infected cell count/Total cell count × 100%. The percentage inhibition for each well was calculated using the formula PI0− PI/PI0 × 100% where PI0 refers to the percentage infection of wells treated with the vehicle control while PI refers to the percentage infection of wells treated with the compounds.

[3] = tested on: replication-competent EV-A71 RNA replicon; assay: Nano-luciferase reporter assay, replication-competent replicon; format: cell-based, human enterovirus A71 (EV-A71); details: RD cells, 12 h; ZAF-47 different concentrations, GuHCl 1 mM
Experimental: To identify specifically which of these two intrinsically linked processes that ZAF-47 inhibits, we transfected RD cells with EV-A71 RNA replicons that were either replication-competent or replication-defective and subsequently treated them with different concentrations of ZAF-47 for 12 h before detecting for luminescence. Both forms of replicons were previously established and validated. The replication-competent replicon is capable of self-replicating as it contains an intact 3D region that encodes for 3D polymerase (3D^pol) responsible for RNA replication (Figure 4c). […] In contrast, the replication-defective replicon contains a 3D region with 159 nucleotide deletion which would produce a non-functional 3D protein and impair RNA replication (Figure 4c). As such, cells containing the replication-defective replicon express luciferase upon IRES translation of the original replicons only. The transfected cells were also treated with negative control, DMSO and positive controls, guanidine hydrochloride (GuHCl) and cycloheximide (CHX), a RNA replication-specific inhibitor [50] and a general translation inhibitor [51] respectively.
Seeded 96-well plates, with 2 × 10^4 RD cells per well, were incubated overnight at 37 °C with 5% CO2. […]

[4] = tested on: EV-A71; assay: Post-treatment assay with viral plaque assay; format: cell-based, human enterovirus A71 (EV-A71) strain 41; details: for reduction in viral titre: post-treatment, 12 hpi
Experimental: as §1
To determine the inhibitory profiles of the hits, post treatment assay was performed. Seeded 24-well plates, with 1.5 × 10^5 RD cells per well, were incubated overnight at 37 °C with 5% CO2. The seeded cells were infected with EV-A71 (100 µL per well, MOI = 1) for 1 h at 37 °C with 5% CO2 and then rinsed with 1 mL of PBS twice. Different concentrations of the hits were used to treat the infected cells for 12 h at 37 °C with 5% CO2. At 12 hpi, the plates were frozen and thawed for 2 cycles (−80°C; 37 °C) before collection of supernatants to measure the viral titres via viral plaque assay.
Measurement of the viral titres from collected supernatants was derived from viral plaque assays. To do this, 24-well plates, seeded with 2.4 × 10^5 RD cells per well, were used in plaque assays for EV-A71, EV-D68, Echo7, CV-A6, CV-A16 and CV-A24 while 24-well plates, seeded with 1.2 × 10^5 Vero cells per well, were used in plaque assays for CV-B5. Seeded cells were incubated overnight at 37 °C with 5% CO2. Viral supernatants were diluted from 10^−1 to 10^−7 in reduced serum DMEM before infecting the cells with a volume of 100 µL for 1 h at 37 °C with 5% CO2 (33 °C instead for EV-D68). Cells were rinsed twice with PBS before overlaying with 1 mL of reduced serum DMEM containing 0.5% agarose (Vivantis, Shah Alam, Malaysia). Cells infected with Echo7 supernatants were incubated for 2 days, cells infected with CV-A24 and CV-B5 supernatants were incubated for 3 days and cells infected with EV-A71, CV-A6, CV-A16 and EV-D68 supernatants were incubated for 4 days for the formation of plaques. Subsequently, the cells were fixed and stained overnight with 4% paraformaldehyde and 1% crystal violet (Sigma-Aldrich). Subsequent formation of viral plaques was counted manually to quantify the viral titre in PFU/mL

[5] = Cell viability assay (alamarBlue); format: cell-based, human; details: human, RD cells
Experimental: as §1, §2

[6] = set-up: method as in PMID 34816382; details: cited from earlier work
[7] = set-up: method as in PMID 34816382; details: cited from earlier work; remark: listed apart in the source

SMILES: CC1(CO)C(O)CCC2(C)C(CC=C3C(=O)OCC3Oc3ccc([N+](=O)[O-])cc3Cl)C3(CCC12)CO3 (stereo not drawn) [AGP-253, 14S-(2′-Chloro-4′-Nitrophenoxy)-8R/S, 17-Epoxy Andrographolide]
- cytotoxicity [1]: low cytotoxicity
- Inhibition Rate (%) ([2]; 10 µM, 12 h): 98.91%

SMILES: Cl.N=C(N)N [GuHCl, guanidine hydrochloride, reference compound]
- luminescence, replication-competent replicon [3]: significant decrease in luminescence

SMILES: CC(=O)OC[C@]1(C)[C@H](O)CC[C@@]2(C)C(C/C=C3/C(=O)OC[C@@H]3Oc3cccc4cccnc34)=C(C)CC[C@H]12 [ZAF-46, (14β)-(8′-Quinolinoxy)-9-dehydro-17-hydro-19-acetoxy-andrographolide]
- reduction in viral titre ([4]; 10 µM): 1.4 log
- reduction in viral titre ([4]; 20 µM): 2.4 log
- pIC50 ([4]; Enterovirus A, EVA71, EV-A71-infected RD cells, MOI = 1, 12 h treatment, viral plaque assay): 5.35
- Selectivity Index (SI) ([4]; SI = CC50/IC50): 6.73
- CC50 at 12 h [5]: 29.9 µM
- cytotoxicity [1]: low cytotoxicity
- Nuclei Count ([2]; 10 µM, 12 h, 0.1% DMSO wells 998): 1037
- inhibition at 10 µM ([2]; Enterovirus A, EVA71, 12 h, read-out: Inhibition Rate (%)): 96%

SMILES: C=C1CC[C@@H]2[C@](C)(CO)[C@H](O)CC[C@@]2(C)[C@@H]1C/C=C1/C(=O)OC[C@H]1O [andrographolide]
- water solubility [6]: low water solubility
- bioavailability [7]: poor bioavailability

Reference: publication PMC8880313, “Discovery of Novel Andrographolide Derivatives as Antiviral Inhibitors against Human Enterovirus A71” (Pharmaceuticals, 2022)
